One molecule from ChEMBL document CHEMBL3832032, “DailyMed|setid=2238e083-08f2-0aa8-59b7-16b6d68dbd48 | ALPRAZOLAM - alprazolam tablet|Apotex Corp” can be followed below.

Common to all, as to type: ADME, organism-based
A short description of series [1]: (§1) Pharmacokinetic parameters for Alprazolam evaluated after oral administration of alprazolam to subjects of different ages and health conditions. Further details: route oral, dose Range 0.5 to 3. The note with it: human, in vivo, dosed compound id 23, dosed compound name ALPRAZOLAM, gender male and female, tissue Plasma.
Series [2] relates to Homo sapiens. The series is described as §1. Further details: route oral, dose Range 0.5 to 3. The note with it: in vivo, po, dosed compound id 23, dosed compound name ALPRAZOLAM, gender male and female, tissue Plasma.
The test system of series [3] is Homo sapiens. The series can be described thus: Evaluation of pharmacokinetic parameters for Alprazolam following single oral administration of Alprazolam, and following co-administration with multiple doses of carbamazepine. To be noted: in vivo, dose 0.8 mg, dosed compound id 23, dosed compound name ALPRAZOLAM, regimen Single dose, tissue Plasma.
Where [4] appears, read: interact cpd dose 300 mg, inter cpd dos duration 10 days.

The Cmax is the highest concentration seen after dosing. Usually Tmax stands for the time from dosing to the highest level.

SMILES strings stand for the structures.

In turn, `Cc1nnc2n1-c1ccc(Cl)cc1C(c1ccccc1)=NC2` [ALPRAZOLAM] came in with a Cmax in series [1] (po) of 8 to 37 ng/mL. Also, the Tmax in series [1] (dose Range 0.5 to 3 mg, route oral) is 1 to 2 h. Besides, the t1/2 is 11.2 h in series [2] (dose Range 0.5 to 3 mg), 16.3 hr [middle of 5 runs] in series [2], 7.7 h in series [3] (setting [4]) and 17.1 h in series [3]. The CL in series [3] (setting [4]) was found to be 2.13 mL/min/kg; in series [3], 0.9 mL/min/kg.
